The source of these data is patent US20080058579A1, “Compositions and methods for treating disease utilizing a combination of radioactive therapy and cell-cycle inhibitors” (Angiotech International AG, priority 1999, published 2008).

The test system of this assay is PC3 human prostate cells. Nature of the assay: In vivo treatment model using a locally administered cell cycle inhibitor with local radiation. The note with it: FIG. 16; for percent reduction in tumor volume: one week after treatment.

Source text: This animal model is used to determine the effectiveness of a locally administered cell cycle inhibitor (e.g., paclitaxel) in conjunction with a locally administered radiation source in treating a proliferative disease, specifically, a cancer. The relative change in tumor volume measured in tumor bearing mice receiving various treatments will be used to gauge the therapy's effectiveness relative to use of local radiation alone or locally administered cell cycle inhibitor alone.
The methods used are as follows. Cancer cells (specifically PC3) human prostate cells, American Type Culture Collection, Rockville Md.) are maintained in DMEM solution with 5% heat-inactivated fetal calf serum. Male SCID mice are inoculated with approximately 1×10^6 cells subcutaneously in the flank region. The tumor injection sites are followed by visual inspection or palpation. Tumor volume is measured using calipers. The tumor is allowed to grow until it reaches a treatable volume of 100-200 mm^3.
At this time the mice are treated as follows. Approximately six brachytherapy seeds are implanted adjacent to the tumor to deliver a local radiation dose of 25-40 Gy (I^125 radiation source). A polymeric paste (100 μl) containing 50 μg paclitaxel (0.5% w/w) is injected subcutaneously adjacent to or into the tumor. The following treatment groups were studied (10 mice per group). 1) Control paste without paclitaxel and non-radioactive (cold) seeds. 2) Control paste and radioactive seeds. 3) 0.5% w/w paclitaxel loaded paste and cold seeds. 4) 0.5% w/w paclitaxel loaded paste and radioactive seeds.
Tumor size is measured at twice-weekly intervals using calipers. An investigator blinded to the experimental groups will conduct the measurements. Caliper measured dimensions may be taken in two (length (L), width (W)) or three dimensions (Height (H)). […]
The animal data are analyzed as follows. The means and standard deviations of the tumor measurements are determined and plotted from the initial day of caliper measurement until the final measurement. […]

For the compound `CC(=O)O[C@H]1C(=O)[C@@]2(C)[C@H]([C@H](OC(=O)c3ccccc3)[C@]3(O)C[C@H](OC(=O)[C@H](O)[C@@H](NC(=O)c4ccccc4)c4ccccc4)C(C)=C1C3(C)C)[C@]1(OC(C)=O)CO[C@@H]1C[C@@H]2O` [paclitaxel], for the setting “one week after treatment with locally administered radiation (I-125) and locally administered paclitaxel, n=9 per treatment”, the tumor volume result was “decreased”. Further, the “percent reduction in tumor volume” value is, setting by setting: (only one of the two treatments (paclitaxel alone)) “lesser reduction”; (paclitaxel paste (0.5% w/w) and I-125 seeds given in combination) “greatest”.
